Test results published in patent US20080207719A1, “Treatment of Epilepsy” (ORION CORPORATION, priority 2003, published 2008).
“And” between values parts separate entries of the source, which are not always exact repeats. Equal entries are not always repeated.

Experiments:
[1] = system: Male Harlan Sprague-Dawley rats; test: Development of epilepsy after status epilepticus (SE) induced by electrical stimulation of the amygdala; chronic treatment started 1 wk after SE; type: in vivo; conditions: for Number of animals with severe (>1 seizure/day) epilepsy, during treatment / Number of animals with mild (≦1 seizure/day) epilepsy, during treatment / Number of animals with mild (≦1 seizure/day) epilepsy, All / Number of animals with severe (>1 seizure/day) epilepsy, All / Number of animals with mild (≦1 seizure/day) epilepsy, after treatment / Number of animals with severe (>1 seizure/day) epilepsy, after treatment: rats after SE; for Number of animals with severe (>1 seizure/day) epilepsy, during treatment / Number of animals with mild (≦1 seizure/day) epilepsy, during treatment: atipamezole 100 μg/kg/h s.c. minipump for 9 wk starting 1 wk after SE, DZP 20 mg/kg i.p. at 3 h after beginning of SE; for Number of animals with severe (>1 seizure/day) epilepsy, during treatment: animals/epileptic animals; for Number of animals with mild (≦1 seizure/day) epilepsy, All / Number of animals with severe (>1 seizure/day) epilepsy, All: both follow-ups (All); for Number of animals with mild (≦1 seizure/day) epilepsy, after treatment / Number of animals with severe (>1 seizure/day) epilepsy, after treatment: follow-up after the 9 wk treatment
Method: To mimic the clinical environment, α2-adrenoceptor antagonist treatment with atipamezole was started 1 wk after induction of status epilepticus (SE) with subcutaneous Alzet minipumps and continued for 9 wk. Two independent studies were carried out.
Male Harlan Sprague-Dawley rats (300-350 g; Netherlands) were used in this study. After implantation of electrodes, rats were housed in individual cages at a temperature of 19-21° C., with humidity at 50-60% and lights on 7.00-19.00. Standard food pellets and water were freely available.
The animals were anaesthetized with an intraperitoneal injection of sodium pentobarbital (60 mg/kg) and chloral hydrate (60 mg/kg) and inserted into a stereotaxic frame (lambda and bregma at the same horizontal level). A pair of stimulating electrodes (0.5 mm tip separation) was implanted into the lateral nucleus of the left amygdala (3.6 mm posterior, 5.0 mm lateral, and 6.5 mm ventral to bregma). One stainless steel screw was inserted into the skull above the right frontal cortex and served as cortical electrode (3 mm anterior to the bregma, 2 mm lateral to midline). Two stainless steel screws were inserted into the skull bilaterally over the cerebellum, which served as indifferent and ground electrodes. The electrodes were fixed with dental acrylate. The rats were allowed to recover from surgical operation for 14 d, after which electrical stimulation was initiated.
After discharge threshold was assessed by stimulating the amygdala with a one-second train of one-msec bipolar square-wave pulses (60 Hz, 50-400 μA peak to peak). Only those rats in which after discharges could be induced at 400 μA or at lower current level were included in the study.
To induce SE, the amygdala was stimulated repeatedly at 500 msec intervals with a train of pulses lasting 100 msec (1 msec 60 Hz bipolar pulses at 400 μA peak to peak). […] Once the criterion of SE was achieved, no further stimulation was given. After 3 h, SE was terminated by injecting diazepam 20 mg/kg (i.p.).
Vehicle (0.9% saline, Natrosteril 9 mg/ml, Baxter, Vantaa, Finland) was administered via subcutaneous Alzet minipumps with a pumping rate of 9.15 μl/h in 1-wk and 2.61 μl/h in 8-wk pumps starting 1 wk after stimulation. Minipumps were implanted subcutaneously to the back between the scapulae according to the instructions provided by manufacturer. For implantation, animals were anesthetized with an intraperitoneal injection of sodium pentobarbital (60 mg/kg) and chloral hydrate (60 mg/kg).
Diazepam was administered at 3 h after the beginning of SE (20 mg/kg, i.p.). Atipamezole treatment was started 1 wk after SE. Compound was administered with subcutaneous Alzet osmotic minipumps and continued for 9 wk. Atipamezole was dissolved into sterile 0.9% NaCl. The concentration of atipamezole was adjusted according to the weight of the rat and pumping rate to obtain a constant flow-rate of 100 μg/kg/h.
• DZP (diazepam)+vehicle (n=11): Rats with SE treated with DZP (20 mg/kg, i.p.) at 3 h after the beginning of SE. Chronic treatment with vehicle (0.9% NaCl, subcutaneous Alzet minipumps) for 9 wk starting 1 wk after SE. • DZP+atipamezole (n=7): Rats with SE treated with DZP (20 mg/kg, i.p.) at 3 h after the beginning of SE. Chronic treatment with atipamezole (100 μg/kg/h, subcutaneous Alzet minipumps) for 9 wk starting 1 wk after SE.
Controls (n=9): Operated, non-stimulated and non-treated controls.
Ø+vehicle (n=11): No treatment at 3 h after the beginning of SE. Chronic treatment with vehicle (0.9% NaCl in subcutaneous Alzet minipump) for 9 wk starting 1 wk after SE.
DZP+vehicle (n=10): Diazepam treatment (20 mg/kg, i.p.) at 3 h after the beginning of SE. Chronic treatment with vehicle (0.9% NaCl in subcutaneous Alzet minipump) for 9 wk starting 1 wk after SE.
Ø+atipamezole (n=10). No treatment at 3 h after the beginning of SE. Chronic treatment with atipamezole (100 μg/kg/h, subcutaneous Alzet minipumps) for 9 wk starting 1 wk after SE.
DZP+atipamezole (n=12). […]

alpha2-adrenoceptor = conditions: background statement, no species differences (human and rodent); cited from earlier work
kainate-induced seizures = conditions: acute administration; Halonen T. et al., Brain Res 1995; cited from earlier work
cortical excitability = conditions: oral administration, humans; Plewnia C et al., Neurosci Lett 2001; cited from earlier work
[2] = listed as Ø + atipamezole, hydrochloride
[3] = listed as Ø/DZP + atipamezole, hydrochloride

CCC1(c2c[nH]cn2)Cc2ccccc2C1.Cl [atipamezole, 4-(2-ethyl-2,3-dihydro-1H-inden-2-yl)-1H-imidazole hydrochloride]
Number of animals with severe (>1 seizure/day) epilepsy, during treatment [1, 2]: 1/8
Number of animals with severe (>1 seizure/day) epilepsy, during treatment [1, 3]: 1/20
Number of animals with mild (≦1 seizure/day) epilepsy, during treatment [1, 2]: 7/8
Number of animals with mild (≦1 seizure/day) epilepsy, during treatment [1, 3]: 19/20
Number of animals with mild (≦1 seizure/day) epilepsy, All [1, 2]: 7/8
Number of animals with severe (>1 seizure/day) epilepsy, All [1, 2]: 1/8
Number of animals with mild (≦1 seizure/day) epilepsy, All [1, 3]: 21/22
Number of animals with severe (>1 seizure/day) epilepsy, All [1, 3]: 1/22
Number of animals with mild (≦1 seizure/day) epilepsy, after treatment [1, 2]: 6/7
Number of animals with severe (>1 seizure/day) epilepsy, after treatment [1, 2]: 1/7
Number of animals with mild (≦1 seizure/day) epilepsy, after treatment [1, 3]: 19/20
Number of animals with severe (>1 seizure/day) epilepsy, after treatment [1, 3]: 1/20
Effect on epileptogenesis ([1]; summary statement, epilepsy that develops is milder and can be non-progressive): clear disease-modifying effect on epileptogenesis
alpha2/alpha1-selectivity ratio (alpha2-adrenoceptor): high
Effect on kainate-induced seizures (kainate-induced seizures): proconvulsant effect

CN1C(=O)CN=C(c2ccccc2)c2cc(Cl)ccc21 [DZP + vehicle]
Rats with >1 seizure/day ([1]; data combined from the two studies): 50%
Number of animals with mild (≦1 seizure/day) epilepsy, during treatment [1]: 1/4 and 6/10
Number of animals with severe (>1 seizure/day) epilepsy, during treatment [1]: 3/4 and 4/10
Number of animals with mild (≦1 seizure/day) epilepsy, All [1]: 2/4 and 5/10
Number of animals with severe (>1 seizure/day) epilepsy, All [1]: 2/4 and 5/10
Number of animals with mild (≦1 seizure/day) epilepsy, after treatment [1]: 1/3 and 5/9
Number of animals with severe (>1 seizure/day) epilepsy, after treatment [1]: 2/3 and 4/9

COC(=O)[C@@H]1[C@H]2C[C@H]3c4[nH]c5ccccc5c4CCN3C[C@@H]2CC[C@@H]1O [yohimbine]
Cortical excitability induced by transcranial magnetic stimulation (cortical excitability): increased cortical excitability
